This is an account of results in PMC7978378, “Discovery of novel dual adenosine A1/A2A receptor antagonists using deep learning, pharmacophore modeling and molecular docking” (PLoS Computational Biology, 2021).

Structures are written as SMILES.

In one data set the test system is animal models of PD. Further details: method as in PMID 20973483. Particulars: oral administration; cited from earlier work.
Details of data set [1]: method as in PMID 20973483. Particulars: further studies; cited from earlier work.
In a further data set the target is A2A receptor. Particulars: cited from earlier work.
The next data set has as its target A1 receptor. As to conditions: cited from earlier work.
Data set [2] concerns the target A1AR. Also on record: method as in ChEMBL25 [53]. As to conditions: S1 Table training set; ref ChEMBL25 [53]; read-out: Ki (nM) A1; cited from earlier work.
Data set [3] addresses A2AAR. Also on record: method as in ChEMBL25 [53]. As to conditions: S1 Table training set; ref ChEMBL25 [53]; read-out: Ki (nM) A2A; cited from earlier work.
Data set [4] has as its target T1, A1AR (Homo sapiens, UniProt P30542).
T1 sequence (P30542 1-326): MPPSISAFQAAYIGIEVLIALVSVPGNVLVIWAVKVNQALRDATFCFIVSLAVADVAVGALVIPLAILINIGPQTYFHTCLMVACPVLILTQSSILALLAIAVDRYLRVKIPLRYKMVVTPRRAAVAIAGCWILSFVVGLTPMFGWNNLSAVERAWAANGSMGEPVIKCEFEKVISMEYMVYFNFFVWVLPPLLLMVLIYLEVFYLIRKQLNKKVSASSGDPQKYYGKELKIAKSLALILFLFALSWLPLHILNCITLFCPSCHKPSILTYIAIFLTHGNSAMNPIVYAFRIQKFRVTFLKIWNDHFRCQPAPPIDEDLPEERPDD
The data set is described as follows: cAMP functional assay, CHO-A1 cells. Further details: host or cells: CHO-A1 cells. Particulars: antagonism of NECA effect on cAMP, 5.08 × 10^−3 to 100 μM, read-out: cAMP assays (pIC50) A1 (converted). Format: cell-based. On the technique in general: cAMP levels reflect the balance of adenylyl cyclase and phosphodiesterase activity.

Data set [5] concerns the target T2, A2AAR (Homo sapiens, UniProt P29274). The data set is described as follows: Radioligand binding assay ([3H]ZM241385). As to conditions: [3H]ZM241385 0.5 nM, 90 min at 27°C, Cheng-Prusoff; read-out: Binding affinities (pKi) A2A (converted).
Data set [6] has as its target T2, A2AAR. The data set can be described thus: cAMP functional assay, HEK293-A2A cells. Format: cell-based. Further details: host or cells: HEK293-A2A cells. As to conditions: antagonism of NECA effect on cAMP, 5.08 × 10^−3 to 100 μM, read-out: cAMP assays (pIC50) A2A (converted).
The target of data set [7] is T1, A1AR. The data set can be described thus: biochemical.
Data set [8] concerns the target A1/A2A ARs. The data set is described as follows: Radioligand binding assays, summarised over both receptors. Also on record: species or system human. Particulars: range over A1AR and A2AAR radioligand binding assays.
In data set [9] the test system is A1/A2A ARs. The data set can be described thus: cAMP functional assay, summarised over both receptors. Particulars: range over A1AR and A2AAR cAMP assays.
The next data set deals with rodents. Particulars: forced swim test and tail suspension test in rodents; cited from earlier work.

T2 sequence (P29274 whole entry): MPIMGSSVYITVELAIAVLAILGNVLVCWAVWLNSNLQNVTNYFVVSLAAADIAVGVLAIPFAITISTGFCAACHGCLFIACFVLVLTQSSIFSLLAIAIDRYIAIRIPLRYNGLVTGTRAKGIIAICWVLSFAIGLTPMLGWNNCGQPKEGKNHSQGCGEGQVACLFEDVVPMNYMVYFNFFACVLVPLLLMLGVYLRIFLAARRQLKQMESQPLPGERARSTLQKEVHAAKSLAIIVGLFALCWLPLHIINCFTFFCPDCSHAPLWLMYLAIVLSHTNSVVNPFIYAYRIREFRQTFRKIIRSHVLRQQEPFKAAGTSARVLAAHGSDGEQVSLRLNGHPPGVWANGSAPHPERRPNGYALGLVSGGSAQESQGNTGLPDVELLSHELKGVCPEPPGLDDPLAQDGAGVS

Turning to `Nc1nc(-c2ccccc2)c2c(n1)-c1cc(CN3CCCC3)ccc1C2=O` [2-amino-4-phenyl-8-(pyrrolidin-1-ylmethyl)-5H-indeno[1,2-d]pyrimidin-5-one], in the data set on animal models of PD, the “activity in animal models of PD” value was “excellent activity”. In addition, in data set [1], the genotoxicity entry is given as “genotoxic”.

As for `Cc1ccc(-c2cc(-c3cccc(C(=O)N4CCCCC4)c3)nc(N)n2)o1` [4-(5-methylfuran-2-yl)-6-[3-(piperidine-1-carbonyl)phenyl]pyrimidin-2-amine], the Ki on A2A receptor is 6.34 nM; on A1 receptor, 9.54 nM.

With `N#Cc1c(N)nc(SCc2ncc[nH]2)c(C#N)c1-c1ccc(O)cc1` [CHEMBL122622], the Ki was 2.6 nM at A1AR [2] and 28 nM at A2AAR [3].

For the molecule `COc1ccc(NC(=O)Nc2nc3ccc(Cl)cc3c3nc(-c4ccco4)nn23)cc1` [CHEMBL144979], the Ki is 7.6 nM on A1AR [2] and 9.4 nM on A2AAR [3].

As to `CCCCCc1nc(N)c2nc(-n3nccn3)n(C)c2n1` [CHEMBL196258], on A1AR [2], the Ki is 26.2 nM.

For `Nc1nc(C#C[C@@H](O)c2ccccc2)nc2c1ncn2[C@@H]1O[C@H](CO)[C@@H](O)[C@H]1O` [CHEMBL262363], the Ki at A1AR [2] was 0.67 nM; on A2AAR [3], 1.8 nM.

Regarding `OC[C@H]1O[C@@H](n2cnc3c(NC4CCCC4)nc(Cl)nc32)[C@H](O)[C@@H]1O` [CHEMBL284969], at A2AAR [3], the Ki was 17 nM.

As to `CC(=O)Nc1cc(-n2cccn2)nc(-c2ccco2)n1` [CHEMBL401321], the Ki at A1AR [2] was 9.45 nM; at A2AAR [3], 0.6 nM.

In the case of `Cc1ccc(-c2nc(N)nc3c2nnn3Cc2ccccc2F)o1` [CHEMBL461857], the Ki on A1AR [2] was 19 nM; at A2AAR [3], 2.1 nM.

As to `CC(=O)Nc1cc(-c2cccc(N3CCCC3)n2)nc(-n2nc(C)cc2C)n1` [CHEMBL485765], the Ki at A1AR [2] is 7.2 nM; at A2AAR [3] it was 0.26 nM.

As for `O=C(NC1CC1)[C@H]1S[C@@H](n2cnc3c(NCc4cccc(I)c4)ncnc32)[C@H](O)[C@@H]1O` [CHEMBL596014], at A2AAR [3], the Ki was 15.2 nM.

As for `Nc1nc(-c2ccccc2)c2c(n1)-c1cc(N3CCOCC3)ccc1C2=O` [CHEMBL1095822], the Ki at A1AR [2] was 32.4 nM; on A2AAR [3], 2.9 nM.

As to `CCn1c(/N=C/c2ccc(F)cc2)c(C#N)sc1=S` [CHEMBL2419148], the Ki at A2AAR [3] is 11 nM.

As for `CN(C)CCOc1ccc(-c2nc3c([nH]2)c(=O)n(C)c(=O)n3C)cc1` [CHEMBL3121720], the values for the Ki on A1AR [2] and on A2AAR [3] were 1.82 nM and 0.4 nM, respectively.

For the molecule `CCCCNC(=O)CCn1nc(-c2ccccc2)c2ccccc2c1=O` [Compound C1], the IC50 on A1AR [4] was over 100000 nM.

Turning to `O=C(COc1ccccc1)Nc1c(C(=O)Nc2cccc(F)c2)oc2ccccc12` [Compound C2], the IC50 on A1AR [4] is over 100000 nM.

For the molecule `O=C(CCCn1c2ccccc2c2cn[nH]c(=O)c21)NCc1cccs1` [Compound C3], the IC50 on A1AR [4] was over 100000 nM.

Consider `O=C(c1ccco1)n1nc(-c2ccco2)nc1NCc1ccccc1` [Compound C4], for which the Ki is 19500 nM on A2AAR [5] and 2090 nM on A1AR [7]. The results for the IC50 at A2AAR [6] and at A1AR [4] were over 100000 nM and 3090 nM, respectively.

For `Cc1ccccc1-c1nc(N)n(C(=O)Cc2ccccc2)n1` [Compound C7], the Ki was 5750 nM on A2AAR [5] and 1050 nM on A1AR [7]. Besides, the IC50 is over 100000 nM at A2AAR [6] and 1910 nM at A1AR [4].

For `Nc1nc(-c2ccccc2Cl)nn1C(=O)c1cccc(Cl)c1` [Compound C9], the Ki at A2AAR [5] was 69.2 nM; on A1AR [7] it was 32.4 nM. Also, the “pKi for A1/A2A ARs” value at A1/A2A ARs [8] is listed as 7.16–7.49. In addition, the figures for the IC50 at A2AAR [6] and at A1AR [4] were 490 nM and 191 nM, respectively. For the same molecule, in the data set with A1/A2A ARs [9], the “pIC50 towards A1/A2A ARs” value is reported as 6.31–6.78.

Consider `CCCNc1cc(C)nc2c(C)c(-c3ccc(C)cc3)nn12` [Compound C10], for which the Ki is 8320 nM at A2AAR [5] and 170 nM at A1AR [7]. The IC50 at A2AAR [6] was 10000 nM; on A1AR [4], 347 nM.

In the case of `Cn1c(=O)c2c(-c3cccc(Cl)c3)c(Nc3ccccc3)oc2n(C)c1=O` [Compound C11], the IC50 on A1AR [4] is over 100000 nM.

For the molecule `O=C(Cc1csc(NC(=O)c2ccc3c(c2)OCO3)n1)NCCCc1ccccc1` [Compound C13], the IC50 on A1AR [4] is over 100000 nM.

Consider `Cc1cccc(NC(=O)Cc2csc(NC(=O)c3ccc4c(c3)OCO4)n2)c1` [Compound C14], for which the IC50 on A1AR [4] is over 100000 nM.

Regarding `CC(=O)c1cccc(NC(=O)Nc2cc3c(cc2Oc2ccccc2)n(C)c(=O)n3C)c1` [Compound C15], the figures for the Ki on A2AAR [5] and on A1AR [7] were over 100000 nM and 2880 nM, respectively. Also, the results for the IC50 at A2AAR [6] and on A1AR [4] were 7940 nM and 4470 nM, respectively. Moreover, the “pIC50 towards A1/A2A ARs” value in the data set on A1/A2A ARs [9] was 5.10–5.35.

As to `CCCn1ccc2c(OCC(=O)Nc3ccc(OCC)cc3)cccc2c1=O` [Compound C16], the IC50 at A1AR [4] was over 100000 nM.

Turning to `CCn1cnc2c(-c3ccccc3)cn(CC(=O)Nc3cccc(F)c3)c2c1=O` [Compound C17], the Ki at A2AAR [5] was over 100000 nM; on A1AR [7], 525 nM. The IC50 at A2AAR [6] is 63100 nM; at A1AR [4], 631 nM.

Take `O=C(Cn1c(=O)n(-c2ccccc2)c2ncccc21)NCc1cccc(F)c1` [Compound C18]: the IC50 on A1AR [4] is over 100000 nM.

Take `Cc1ccc(-c2c(C(=O)NCc3ccncc3)nc3ccccn23)cc1` [Compound C19]: the Ki at A2AAR [5] is 11700 nM; at A1AR [7], 10700 nM. Moreover, the IC50 at A2AAR [6] is over 100000 nM; at A1AR [4], 52500 nM.

Take `CCn1c(=O)c2c(nc(/C=C/c3ccc(OC)c(OC)c3)n2C)n(CC)c1=O` [KW-6002]: the antidepressant activity result with rodents is listed as “antidepressant activity”.
